These are literature values, as cited in EP2708126A1, “Insecticidal aerosol” (priority 2012, dated 2014).

As a reminder, the LD50 is the dose expected to kill half of the subjects tested.

The conditions of this data set: rats, through ingestion.

Regarding `CC1(C)C(C=C(Cl)Cl)C1C(=O)OC(C#N)c1cccc(Oc2ccccc2)c1` (racemic) [Alpha cypermethrin], the 50% lethal dose (LD50) was 79 mg/kg.

In the case of `CNC(=O)Oc1cccc2c1OC(C)(C)O2` [Bendiocarb, 2,2-dimethyl-1,3-benzodioxol-4-yl-N-methylcarbamate], the LD50 is listed as 55 mg/kg.

For `CC1(C)C(C=C(Cl)Cl)C1C(=O)OCc1cccc(Oc2ccccc2)c1` (stereo not drawn) [Permethrin, 3-phenoxybenzyl-3-(2,2-dichlorovinyl)-2,2-dimethylcyclopropane-carboxylate], the LD50 is recorded as 383 mg/kg.
